Results taken from EPA's ToxRefDB 2.

Key:
[1] = tested on: rat; conditions: Prenatal developmental toxicity study, sprague-dawley, Oral, Gavage/Intubation, dose end: 15 GD
[2] = tested on: rat; conditions: Combined chronic toxicity/carcinogenicity, other, Oral, Feed, dose end: 24 month, group: systemic
[3] = tested on: rabbit; conditions: Prenatal developmental toxicity study, himalayan, Oral, Gavage/Intubation, dose end: 19 GD
[4] = tested on: dog; conditions: Chronic toxicity, beagle, Oral, Feed, dose end: 52 week, group: systemic
[5] = tested on: rat; conditions: Multigenerational reproductive toxicity study, other, Oral, Feed, dose end: 2 generation
[6] = tested on: rat; conditions: Subchronic oral toxicity in rodents, sprague dawley, Feed, dose end: 3 month, group: systemic
[7] = tested on: mouse; conditions: Carcinogenicity, other, Oral, Feed, dose end: 18 month, group: systemic
[8] = tested on: dog; conditions: Subchronic oral toxicity in nonrodent, beagle, Feed, dose end: 90 day, group: systemic, systemic / clinical chemistry / albumin / albumin + systemic / clinical chemistry / albumin-globulin ratio / albumin-globulin ratio + …
[9] = tested on: rat; conditions: Combined chronic toxicity/carcinogenicity, fischer, Oral, [Not Specified], dose end: 123 week, group: systemic
[10] = tested on: dog; conditions: Chronic toxicity; beagle; Oral; Capsule; dose end: 52 week; group: systemic; systemic / in life observation / clinical signs / ataxia + systemic / in life observation / clinical signs / squinting + systemic / in life …
[11] = tested on: mouse; conditions: Carcinogenicity, cd1, Oral, Feed, dose end: 81 week, group: systemic
[12] = tested on: rabbit; conditions: Prenatal developmental toxicity study, new zealand white, Oral, Gavage/Intubation, dose end: 19 GD
[13] = tested on: mouse; conditions: Sub-acute repeat dose toxicity, cd1, Oral, Feed, dose end: 5 week, group: systemic
[14] = tested on: rat; conditions: Prenatal developmental toxicity study, wistar, Oral, Gavage/Intubation, dose end: 15 GD
[15] = tested on: rat; conditions: Combined chronic toxicity/carcinogenicity, sprague dawley, Oral, Feed, dose end: 24 month, group: systemic
[16] = tested on: rat; conditions: Prenatal developmental toxicity study, sprague dawley, Oral, Gavage/Intubation, dose end: 15 GD
[17] = tested on: rat; conditions: Multigenerational reproductive toxicity study, sprague dawley, Oral, Feed, dose end: 2 generation
[18] = tested on: dog; conditions: Chronic toxicity; beagle; Oral; Feed; dose end: 52 week; group: systemic; systemic / organ weight / kidney / absolute + systemic / organ weight / kidney / relative to body weight + systemic / pathology microscopic…
[19] = tested on: rat; conditions: Subchronic oral toxicity in rodents, sprague dawley, Feed, dose end: 90 day, group: systemic
[20] = tested on: mouse; conditions: Subchronic oral toxicity in rodents, cd1, Feed, dose end: 13 week, group: systemic
[21] = group: developmental, developmental / developmental malformation / bone / unossified + developmental / developmental malformation / bone / [other]
[22] = group: developmental, developmental / developmental malformation / bone / unossified + developmental / developmental malformation / bone / [other] + developmental…
[23] = group: maternal, systemic / in life observation / body weight / body weight gain + systemic / in life observation / food consumption / food consumption
[24] = systemic / pathology microscopic / kidney / atrophy
[25] = systemic / pathology microscopic / kidney / atrophy + systemic / in life observation / body weight / body weight + systemic / in life …
[26] = group: developmental, developmental / developmental malformation / heart / misshapen
[27] = group: maternal, systemic / in life observation / clinical signs / hemorrhagic perineal discharge + systemic / in life observation / mortality / mortality
[28] = group: maternal, systemic / in life observation / clinical signs / hemorrhagic perineal discharge + systemic / in life observation / mortality / mortality + …
[29] = systemic / pathology gross / lung / foci + systemic / in life observation / body weight / body weight gain + systemic / pathology …
[30] = group: offspring, systemic / in life observation / body weight / offspring (pup) weight + systemic / organ weight / spleen / absolute + systemic / organ …
[31] = group: parental, systemic / in life observation / body weight / body weight + systemic / in life observation / body weight / body weight gain + systemic / in…
[32] = systemic / in life observation / body weight / body weight + systemic / in life observation / body weight / body weight gain
[33] = systemic / in life observation / body weight / body weight + systemic / in life observation / body weight / body weight gain + systemic / …
[34] = systemic / in life observation / body weight / body weight + systemic / in life observation / body weight / body weight gain + systemic / in…
[35] = systemic / organ weight / liver / absolute + systemic / organ weight / liver / relative to body weight + systemic / urinalysis / specific …
[36] = systemic / organ weight / liver / relative to body weight + systemic / pathology microscopic / liver / fatty change
[37] = systemic / organ weight / liver / relative to body weight + systemic / pathology microscopic / liver / fatty change + systemic / pathology …
[38] = group: developmental, developmental / developmental malformation / bone / fused + developmental / developmental malformation / bone / thoracic hemivertebra
[39] = group: maternal, systemic / in life observation / body weight / body weight gain + systemic / in life observation / clinical signs / convulsions + systemic…
[40] = systemic / clinical chemistry / alanine aminotransferase (alt/sgpt) / alanine aminotransferase (alt/sgpt) + systemic / clinical chemistry / …
[41] = systemic / clinical chemistry / triglycerides / triglycerides
[42] = group: developmental, systemic / in life observation / body weight / fetal weight
[43] = group: maternal, systemic / in life observation / body weight / body weight gain + reproductive / reproductive performance / reproductive performance other…
[44] = systemic / organ weight / adrenal gland / nos + systemic / organ weight / pituitary gland / nos + systemic / in life observation / clinical …
[45] = group: developmental, developmental / developmental malformation / bone / full supernumerary + developmental / developmental malformation / general / crown-rump …
[46] = group: maternal, systemic / in life observation / body weight / body weight gain + systemic / in life observation / clinical signs / body surface staining + …
[47] = group: parental, systemic / organ weight / liver / absolute + systemic / organ weight / liver / relative to body weight + systemic / pathology microscopic / …
[48] = group: reproductive, reproductive / reproductive performance / gestational length / gestational length
[49] = systemic / clinical chemistry / calcium / calcium

## COc1cc(OC)nc(NC(=O)[N-]S(=O)(=O)c2ncccc2OCC(F)(F)F)n1.[Na+] [Trifloxysulfuron-sodium]
[1]; [21]
  LEL: 30 mg/kg/day
  NEL: < 30 mg/kg/day
[1]; [22]
  LOAEL: 1000 mg/kg/day
  NOAEL: 300 mg/kg/day
[1]; [23]
  LOAEL: 1000 mg/kg/day
  NEL: 30 mg/kg/day
  NOAEL: 300 mg/kg/day
[1]; group: maternal, systemic / in life observation / food consumption / food consumption
  LEL: 300 mg/kg/day
[2]; [24]
  LEL: 99.3 mg/kg/day
  LOAEL: 99.3 mg/kg/day
[2]; [25]
  NEL: 23.7 mg/kg/day
  NOAEL: 23.7 mg/kg/day
[3]; [26]
  LEL: 100 mg/kg/day
  LOAEL: 100 mg/kg/day
  NEL: 50 mg/kg/day
  NOAEL: 50 mg/kg/day
[3]; [27]
  LEL: 250 mg/kg/day
  LOAEL: 250 mg/kg/day
[3]; [28]
  NEL: 100 mg/kg/day
  NOAEL: 100 mg/kg/day
[4]; systemic / pathology gross / lung / foci
  LEL: 15 mg/kg/day
[4]; [29]
  NEL: 6.51 mg/kg/day
  NOAEL: 51.1 mg/kg/day
[4]; systemic / pathology gross / lung / foci + systemic / pathology microscopic / lung / thickened
  LOAEL: 123 mg/kg/day
[5]; [30]
  LEL: 631 mg/kg/day
  LOAEL: 631 mg/kg/day
  NEL: 78.8 mg/kg/day
  NOAEL: 78.8 mg/kg/day
[5]; [31]
  LEL: 631 mg/kg/day
  LOAEL: 631 mg/kg/day
  NEL: 78.8 mg/kg/day
  NOAEL: 78.8 mg/kg/day
[6]; systemic / clinical chemistry / cytochrome p450, nos / cytochrome p450, nos
  LEL: 239 mg/kg/day
[6]; [32]
  LOAEL: 1050 mg/kg/day
[6]; [33]
  NEL: 65.7 mg/kg/day
  NOAEL: 507 mg/kg/day
[7]; [32]
  LEL: 24.1 mg/kg/day
  LOAEL: 24.1 mg/kg/day
[7]; [34]
  NEL: 5.76 mg/kg/day
  NOAEL: 5.76 mg/kg/day
[8]
  LEL: 164 mg/kg/day
  LOAEL: 164 mg/kg/day
  NEL: 19.8 mg/kg/day
  NOAEL: 19.8 mg/kg/day

## C=CCC1=C(C)C(OC(=O)C2C(C=C(C)C)C2(C)C)CC1=O (configuration not stated) [Allethrin]
[9]; systemic / organ weight / liver / absolute + systemic / organ weight / liver / relative to body weight
  LOAEL: 24.5 mg/kg/day
[9]; [35]
  LEL: 5.9 mg/kg/day
  NEL: < 5.9 mg/kg/day
  NOAEL: 5.9 mg/kg/day
[10]
  LEL: 20 mg/kg/day
  LOAEL: 20 mg/kg/day
  NEL: 6 mg/kg/day
  NOAEL: 6 mg/kg/day
[11]; [36]
  NEL: 71.6 mg/kg/day
  NOAEL: 71.6 mg/kg/day
[11]; [37]
  LEL: 350 mg/kg/day
  LOAEL: 350 mg/kg/day
[12]; [38]
  LEL: 350 mg/kg/day
  LOAEL: 350 mg/kg/day
  NEL: 100 mg/kg/day
  NOAEL: 100 mg/kg/day
[12]; [39]
  LEL: 350 mg/kg/day
  LOAEL: 350 mg/kg/day
  NEL: 100 mg/kg/day
  NOAEL: 100 mg/kg/day
[13]; [40]
  LOAEL: 1520 mg/kg/day
  NOAEL: 438 mg/kg/day
[13]; [41]
  LEL: 14 mg/kg/day
  NEL: < 14 mg/kg/day

## FC(F)C(F)(F)OCC(Cn1cncn1)c1ccc(Cl)cc1Cl (configuration not stated) [Tetraconazole]
[14]; [42]
  LEL: 100 mg/kg/day
  LOAEL: 100 mg/kg/day
  NEL: 30 mg/kg/day
  NOAEL: 30 mg/kg/day
[14]; group: maternal, systemic / in life observation / body weight / body weight gain
  LOAEL: 100 mg/kg/day
[14]; [43]
  LEL: 100 mg/kg/day
  NEL: 30 mg/kg/day
  NOAEL: 30 mg/kg/day
[15]; systemic / clinical chemistry / alanine aminotransferase (alt/sgpt) / alanine aminotransferase (alt/sgpt)
  LEL: 3.4 mg/kg/day
[15]; [44]
  LOAEL: 27.7 mg/kg/day
  NEL: 0.4 mg/kg/day
  NOAEL: 3.4 mg/kg/day
[16]; [45]
  LEL: 100 mg/kg/day
  LOAEL: 100 mg/kg/day
  NEL: 22.5 mg/kg/day
  NOAEL: 22.5 mg/kg/day
[16]; [46]
  LEL: 22.5 mg/kg/day
  LOAEL: > 100 mg/kg/day
  NEL: 5 mg/kg/day
  NOAEL: ≥ 100 mg/kg/day
[17]; group: offspring, systemic / in life observation / body weight / offspring (pup) weight + systemic / organ weight / liver / relative to body weight
  LOAEL: 35.5 mg/kg/day
[17]; group: offspring, systemic / in life observation / body weight / offspring (pup) weight + systemic / organ weight / liver / relative to body weight + systemic…
  NOAEL: 4.9 mg/kg/day
[17]; group: offspring, systemic / organ weight / liver / relative to body weight
  LEL: 5.9 mg/kg/day
[17]; group: offspring, systemic / organ weight / liver / relative to body weight + systemic / in life observation / body weight / offspring (pup) weight + systemic…
  NEL: 0.8 mg/kg/day
[17]; [47]
  LOAEL: 35.5 mg/kg/day
  NOAEL: 4.9 mg/kg/day
[17]; group: parental, systemic / organ weight / liver / relative to body weight
  LEL: 6 mg/kg/day
[17]; group: parental, systemic / organ weight / liver / relative to body weight + systemic / in life observation / body weight / body weight gain + systemic / in …
  NEL: 0.8 mg/kg/day
[17]; [48]
  LEL: 5.9 mg/kg/day
  LOAEL: 5.9 mg/kg/day
  NEL: 0.8 mg/kg/day
  NOAEL: 0.8 mg/kg/day
[18]
  LEL: 2.95 mg/kg/day
  LOAEL: 2.95 mg/kg/day
  NEL: 0.73 mg/kg/day
  NOAEL: 0.73 mg/kg/day
[19]; [49]
  LEL: 0.7 mg/kg/day
  NEL: < 0.7 mg/kg/day
[19]; systemic / clinical chemistry / calcium / calcium + systemic / in life observation / body weight / body weight gain + systemic / organ …
  NOAEL: 4.1 mg/kg/day
[19]; systemic / in life observation / body weight / body weight gain + systemic / organ weight / liver / relative to body weight + systemic / …
  LOAEL: 23.9 mg/kg/day
[20]; [40]
  LOAEL: 20 mg/kg/day
  NOAEL: 4 mg/kg/day
[20]; systemic / pathology microscopic / liver / hypertrophy + systemic / pathology microscopic / liver / degeneration
  LEL: 16 mg/kg/day
[20]; systemic / pathology microscopic / liver / hypertrophy + systemic / pathology microscopic / liver / degeneration + systemic / clinical …
  NEL: 4 mg/kg/day
